Article PMC11148772, “Inhibition of protein translational machinery in triple-negative breast cancer as a promising therapeutic strategy” (Cell Reports Medicine, 2024)
Entries after “also recorded” stand apart in the source; their conditions may differ.

Experiments:
[1] = tested on: TNBC cells (MDA-MB-231, MDA-MB-468, SUM159); assay: Immunoblot assay of cell lysates; assay type: cell-based, human; conditions: MDA-MB-231 and MDA-MB-468, 1 and 2 μM
[2] = tested on: normal breast epithelial cells MCF12A; assay: MTT cell viability assay; assay type: cell-based; conditions: Homo sapiens, MCF-12A, 48 h
Experimental: (§1) MDA-MB-231 (5000 cells per well), MDA-MB-468 (6000 cells per well), SUM159 (3000 cells per well), 4T1 (2000 cells per well), EMT6 (2000 cells per well), E0771 (3000 cells per well), MCF10A (5000 cells per well) and MCF12A (5000 cells per well) cells were seeded in 96-well culture plates. On the next day, cells were treated with either DMSO or indicated concentrations of SU056 for 48 h 3-(4,5-dimethylthiazol-2-yl)-2,5-diphenyltetrazolium bromide (MTT) (0.5 mg/mL) was dissolved in 1x PBS and 50 μL were added to each well and allowed to form formazan crystals (1–2 h) followed by removal of MTT. Formazan crystals were dissolved in DMSO and plates were scanned at 570nm using a Tecan multimode plate reader.
(§2) Data S1. SU056 induces cell cycle arrest and apoptotic cell death, related to Figure 1 A) The growth inhibitory effect of SU056 was evaluated using the MTT assay (0.5 mg/ml in 1x PBS). Normal breast epithelial cells (MCF10A and MCF12A) were plated in a 96 well plate. On the next day, cells were treated with vehicle (DMSO) alone or 0.005-50 μM of […]
(§3) SU056 in fresh medium. […]
(§4) SU056 treatment led to cell cycle arrest at the G2/M phase and induced cell death in TNBC cells. E) MDA-MB-231 and F) MDA-MB-468 cells were analyzed for cell death using Annexin V-FITC Apoptosis Assay kit. Cell lysates were analyzed for Bax and BCL-2 proteins. b-actin was probed to ensure equal protein loading. […]

[3] = tested on: normal breast epithelial cells MCF10A; assay: MTT cell viability assay; assay type: cell-based; conditions: Homo sapiens, MCF-10A, 48 h
Experimental: as §1, §2, §3, §4

[4] = tested on: translation machinery molecules (RPLs, RPSs, eIFs) in MDA-MB-231-YB-1 knockdown cells; assay: CETSA in YB-1 knockdown cells; assay type: binding, human; conditions: YB-1 knockdown vs scrambled control cells
Text: In the second CETSA experiment with MDA-MB-231- YB-1 knockdown cells, the Orbitrap Eclipse Tribrid mass spectrometer parameters consisted of setting the cycle time at Top-speed at 1 s, the mass scan range set between 375 and 1800 m/z, and a mass resolution of 50,000. The normalized AGC target and maximum injection time was set to standard and auto respectively. The precursor ions were selected from highest to lowest charge state, sorted by the lowest m/z, and fragmented using Higher Energy Collisional Dissociation (HCD) with a fixed collisional energy of 38%. Dynamic exclusion was enabled for 60 s with a mass tolerance of ±10 ppm. The normalized AGC target set to 200% with a maximum injection time of 86 ms. MS2 fragments were detected in the Orbitrap with a mass resolution of 50,000 and scan range window of 110–1800 m/z.
Proteins were quantified using individual spectra matched peptides based on a sum-based bootstrap algorithm, which used the TMT reporter ion intensity after correcting for isotope impurities with Proteome Discoverer 2.4. The protein levels were compared between the vehicle and SU056 treated samples. The lowest temperature was used as a reference to calculate the log2 ratio of the soluble fraction signal at each temperature, and the signal at each temperature was compared to the […] temperature to estimate the percentage of signal lost in the soluble fraction. […]

[5] = Maximum tolerated dose / acute oral toxicity; assay type: in vivo, mouse; conditions: for Body Weight, Mean / Toxicity (death/test): ICR (Female) mice
Experimental: The acute oral toxicity of SU056 was evaluated by Eurofins lab services (Eurofins discovery). The oral toxicity study was performed in female rats and mice for multiple escalating doses (100 mg/kg, 200 mg/kg, 400 mg/kg). Rats and mice were monitored for their behavioral, neurological and autonomic signs after administration of SU056. The response was recorded as 0; no adverse effect, ±1 mild adverse effect, ±2, moderate adverse effect and ±3 severe adverse effect.

O=C1OCC2=C1C(c1cccc(F)c1)c1cc3c(cc1N2CCO)OCO3 (stereo not drawn) [SU056, 9-(3-fluorophenyl)-5-(2-hydroxyethyl)-6,9-dihydro-[1,3]dioxolo[4,5-g]furo[3,4-b]quinolin-8(5H)-one]
BCL-2 expression [1]: inhibited
Bax expression [1]: induced
IC50 [2]: 4.65 ± 2.25 µM
IC50 [3]: 4.77 ± 1.61 µM
thermal stability of translation machinery molecules (RPLs, RPSs, and eIFs) [4]: does not increase
Body Weight, Mean ([5]; 100 mg/kg, 0 hr): 23.0 gm
Toxicity (death/test) ([5]; 100 mg/kg, 15 min): 0/3
Toxicity (death/test) ([5]; 100 mg/kg, 1 hr): 0/3
Body Weight, Mean ([5]; 100 mg/kg, 24 hr): 23.0 gm
Toxicity (death/test) ([5]; 100 mg/kg, 24 hr): 0/3
Body Weight, Mean ([5]; 100 mg/kg, 48 hr): 23.3 gm
Toxicity (death/test) ([5]; 100 mg/kg, 48 hr): 0/3
Body Weight, Mean ([5]; 100 mg/kg, 72 hr): 24.3 gm
Toxicity (death/test) ([5]; 100 mg/kg, 72 hr): 0/3
Body Weight, Mean ([5]; 200 mg/kg, 0 hr): 23.7 gm
Toxicity (death/test) ([5]; 200 mg/kg, 15 min): 0/3
Toxicity (death/test) ([5]; 200 mg/kg, 1 hr): 0/3
Body Weight, Mean ([5]; 200 mg/kg, 24 hr): 24.0 gm
Toxicity (death/test) ([5]; 200 mg/kg, 24 hr): 0/3
Body Weight, Mean ([5]; 200 mg/kg, 48 hr): 24.0 gm
Toxicity (death/test) ([5]; 200 mg/kg, 48 hr): 0/3
Body Weight, Mean ([5]; 200 mg/kg, 72 hr): 24.3 gm
Toxicity (death/test) ([5]; 200 mg/kg, 72 hr): 0/3
Body Weight, Mean ([5]; 400 mg/kg, 0 hr): 22.7 gm
Toxicity (death/test) ([5]; 400 mg/kg, 15 min): 0/3
Toxicity (death/test) ([5]; 400 mg/kg, 1 hr): 0/3
Body Weight, Mean ([5]; 400 mg/kg, 24 hr): 22.7 gm
Toxicity (death/test) ([5]; 400 mg/kg, 24 hr): 0/3
Body Weight, Mean ([5]; 400 mg/kg, 48 hr): 23.3 gm
Toxicity (death/test) ([5]; 400 mg/kg, 48 hr): 0/3
Body Weight, Mean ([5]; 400 mg/kg, 72 hr): 24.3 gm
Toxicity (death/test) ([5]; 400 mg/kg, 72 hr): 0/3
behavioral, neurological, and anatomical signs of toxicity and morbidity ([5]; mice, 100, 200, and 400 mg/kg oral gavage, 72 h): not affected; also recorded: no observable changes
